# Data: ChEMBL document CHEMBL5532655, “Discovery of (R)-4-(8-methoxy-2-methyl-1-(1-phenylethy)-1H-imidazo[4,5-c]quinnolin-7-yl)-3,5-dimethylisoxazole as a potent and selective BET inhibitor for treatment of acute myeloid leukemia (AML) guided by FEP calculation” (Eur J Med Chem, 2024)
# Legend:
# [1] = tested on: MV4-11; experiment: Induction of apoptosis in human MV4-11 cells assessed as viable cells at 1.25 uM incubated for 24 hrs by annexin V-FITC/PI staining based flow cytometric analysis (reference value: 97%); type: functional
# [2] = tested on: MV4-11; experiment: Induction of cell cycle arrest in human MV4-11 cells assessed as accumulation of cells at S phase at 5 uM incubated for 24 hrs by propidium iodide staining flow cytometric analysis (reference value: 13.08 %); type: functional
# [3] = tested on: MV4-11; experiment: Induction of apoptosis in human MV4-11 cells assessed as early apoptotic cells at 0.625 uM incubated for 24 hrs by annexin V-FITC/PI staining based flow cytometric analysis (reference value: 0%); type: functional
# [4] = tested on: MV4-11; experiment: Induction of cell cycle arrest in human MV4-11 cells assessed as accumulation of cells at G2/M phase at 1.25 uM incubated for 24 hrs by propidium iodide staining flow cytometric analysis (reference value: 51.43 %); type: functional
# [5] = tested on: MV4-11; experiment: cells; details: Homo sapiens, MV4-11, 48 h
# Description: Antiproliferative activity against human MV4-11 cells assessed as inhibition of cell growth incubated for 48 hrs by MTT assay
# [6] = tested on: MV4-11; experiment: Induction of cell cycle arrest in human MV4-11 cells assessed as accumulation of cells at G0/G1 phase at 0.625 uM incubated for 24 hrs by propidium iodide staining flow cytometric analysis (reference value: 34.97 %); type: functional
# [7] = tested on: MV4-11; experiment: Induction of cell cycle arrest in human MV4-11 cells assessed as accumulation of cells at G0/G1 phase at 5 uM incubated for 24 hrs by propidium iodide staining flow cytometric analysis (reference value: 34.97 %); type: functional
# [8] = tested on: MV4-11; experiment: Induction of cell cycle arrest in human MV4-11 cells assessed as accumulation of cells at S phase at 1.25 uM incubated for 24 hrs by propidium iodide staining flow cytometric analysis (reference value: 13.08 %); type: functional
# [9] = tested on: MV4-11; experiment: Antitumor activity against human MV4-11 cells xenografted in BALB/c mouse assessed as tumor growth inhibition relative to control; type: functional
# [10] = tested on: MV4-11; experiment: Induction of cell cycle arrest in human MV4-11 cells assessed as accumulation of cells at G2/M phase at 2.5 uM incubated for 24 hrs by propidium iodide staining flow cytometric analysis (reference value: 51.43 %); type: functional
# [11] = tested on: MV4-11; experiment: Induction of apoptosis in human MV4-11 cells assessed as necrotic cells at 5 uM incubated for 24 hrs by annexin V-FITC/PI staining based flow cytometric analysis (reference value: 2.35 %); type: functional
# [12] = tested on: MV4-11; experiment: Induction of apoptosis in human MV4-11 cells assessed as late apoptotic cells at 1.25 uM incubated for 24 hrs by annexin V-FITC/PI staining based flow cytometric analysis (reference value: 0.04 %); type: functional
# [13] = tested on: MV4-11; experiment: Induction of apoptosis in human MV4-11 cells assessed as necrotic cells at 0.625 uM incubated for 24 hrs by annexin V-FITC/PI staining based flow cytometric analysis (reference value: 2.35 %); type: functional
# [14] = tested on: MV4-11; experiment: Induction of apoptosis in human MV4-11 cells assessed as late apoptotic cells at 2.5 uM incubated for 24 hrs by annexin V-FITC/PI staining based flow cytometric analysis (reference value: 0.04 %); type: functional
# [15] = tested on: MV4-11; experiment: Induction of apoptosis in human MV4-11 cells assessed as necrotic cells at 10 uM incubated for 24 hrs by annexin V-FITC/PI staining based flow cytometric analysis (reference value: 2.35 %); type: functional
# [16] = tested on: MV4-11; experiment: Induction of apoptosis in human MV4-11 cells assessed as necrotic cells at 2.5 uM incubated for 24 hrs by annexin V-FITC/PI staining based flow cytometric analysis (reference value: 2.35 %); type: functional
# [17] = tested on: MV4-11; experiment: Induction of apoptosis in human MV4-11 cells assessed as early apoptotic cells at 2.5 uM incubated for 24 hrs by annexin V-FITC/PI staining based flow cytometric analysis (reference value: 0%); type: functional
# [18] = tested on: MM1.S; experiment: cells; details: Homo sapiens, 48 h
# Description: Antiproliferative activity against human MM1.S cells assessed as inhibition of cell growth incubated for 48 hrs by MTT assay
# [19] = tested on: MV4-11; experiment: Induction of apoptosis in human MV4-11 cells assessed as viable cells at 0.625 uM incubated for 24 hrs by annexin V-FITC/PI staining based flow cytometric analysis (reference value: 97%); type: functional
# [20] = tested on: MV4-11; experiment: Induction of apoptosis in human MV4-11 cells assessed as viable cells at 5 uM incubated for 24 hrs by annexin V-FITC/PI staining based flow cytometric analysis (reference value: 97%); type: functional
# [21] = tested on: MV4-11; experiment: Induction of cell cycle arrest in human MV4-11 cells assessed as accumulation of cells at G0/G1 phase at 2.5 uM incubated for 24 hrs by propidium iodide staining flow cytometric analysis (reference value: 34.97 %); type: functional
# [22] = tested on: MV4-11; experiment: Induction of apoptosis in human MV4-11 cells assessed as viable cells at 10 uM incubated for 24 hrs by annexin V-FITC/PI staining based flow cytometric analysis (reference value: 97%); type: functional
# [23] = tested on: MV4-11; experiment: Induction of apoptosis in human MV4-11 cells assessed as late apoptotic cells at 0.625 uM incubated for 24 hrs by annexin V-FITC/PI staining based flow cytometric analysis (reference value: 0.04 %); type: functional
# [24] = tested on: MV4-11; experiment: Induction of cell cycle arrest in human MV4-11 cells assessed as accumulation of cells at S phase at 2.5 uM incubated for 24 hrs by propidium iodide staining flow cytometric analysis (reference value: 13.08 %); type: functional
# [25] = tested on: MV4-11; experiment: Induction of cell cycle arrest in human MV4-11 cells assessed as accumulation of cells at G0/G1 phase at 0.3125 uM incubated for 24 hrs by propidium iodide staining flow cytometric analysis (reference value: 34.97 %); type: functional
# [26] = tested on: MV4-11; experiment: Induction of apoptosis in human MV4-11 cells assessed as late apoptotic cells at 10 uM incubated for 24 hrs by annexin V-FITC/PI staining based flow cytometric analysis (reference value: 0.04 %); type: functional
# [27] = tested on: MV4-11; experiment: Induction of cell cycle arrest in human MV4-11 cells assessed as accumulation of cells at G2/M phase at 0.625 uM incubated for 24 hrs by propidium iodide staining flow cytometric analysis (reference value: 51.43 %); type: functional
# [28] = tested on: MV4-11; experiment: Induction of apoptosis in human MV4-11 cells assessed as early apoptotic cells at 10 uM incubated for 24 hrs by annexin V-FITC/PI staining based flow cytometric analysis (reference value: 0%); type: functional
# [29] = tested on: MV4-11; experiment: Induction of cell cycle arrest in human MV4-11 cells assessed as accumulation of cells at G2/M phase at 5 uM incubated for 24 hrs by propidium iodide staining flow cytometric analysis (reference value: 51.43 %); type: functional
# [30] = tested on: MV4-11; experiment: Induction of cell cycle arrest in human MV4-11 cells assessed as accumulation of cells at G0/G1 phase at 1.25 uM incubated for 24 hrs by propidium iodide staining flow cytometric analysis (reference value: 34.97 %); type: functional
# [31] = species: Homo sapiens; details: time 30.0 min
# [32] = species: Homo sapiens; details: time 30.0 min; remark: listed apart in the source
# [33] = tested on: MV4-11; experiment: Induction of apoptosis in human MV4-11 cells assessed as early apoptotic cells at 5 uM incubated for 24 hrs by annexin V-FITC/PI staining based flow cytometric analysis (reference value: 0%); type: functional
# [34] = tested on: MOLM-13; experiment: cells; details: Homo sapiens, MOLM-13, 48 h
# Description: Antiproliferative activity against human MOLM-13 cells assessed as inhibition of cell growth incubated for 48 hrs by MTT assay
# [35] = species: Homo sapiens; details: time 30.0 min; remark: listed apart in the source
# [36] = tested on: MV4-11; experiment: Induction of apoptosis in human MV4-11 cells assessed as late apoptotic cells at 5 uM incubated for 24 hrs by annexin V-FITC/PI staining based flow cytometric analysis (reference value: 0.04 %); type: functional
# [37] = tested on: MV4-11; experiment: Induction of cell cycle arrest in human MV4-11 cells assessed as accumulation of cells at S phase at 0.625 uM incubated for 24 hrs by propidium iodide staining flow cytometric analysis (reference value: 13.08 %); type: functional
# [38] = tested on: MV4-11; experiment: Induction of apoptosis in human MV4-11 cells assessed as necrotic cells at 1.25 uM incubated for 24 hrs by annexin V-FITC/PI staining based flow cytometric analysis (reference value: 2.35 %); type: functional
# [39] = tested on: MV4-11; experiment: Induction of apoptosis in human MV4-11 cells assessed as early apoptotic cells at 1.25 uM incubated for 24 hrs by annexin V-FITC/PI staining based flow cytometric analysis (reference value: 0%); type: functional
# [40] = tested on: MV4-11; experiment: Induction of cell cycle arrest in human MV4-11 cells assessed as accumulation of cells at S phase at 0.3125 uM incubated for 24 hrs by propidium iodide staining flow cytometric analysis (reference value: 13.08 %); type: functional
# [41] = tested on: MV4-11; experiment: Induction of cell cycle arrest in human MV4-11 cells assessed as accumulation of cells at G2/M phase at 0.3125 uM incubated for 24 hrs by propidium iodide staining flow cytometric analysis (reference value: 51.43 %); type: functional
# [42] = tested on: MV4-11; experiment: Induction of apoptosis in human MV4-11 cells assessed as viable cells at 2.5 uM incubated for 24 hrs by annexin V-FITC/PI staining based flow cytometric analysis (reference value: 97%); type: functional
# [43] = tested on: Jurkat; experiment: cells; details: Homo sapiens, 48 h
# Description: Antiproliferative activity against human Jurkat cells assessed as inhibition of cell growth incubated for 48 hrs by MTT assay
structure (smiles),measurement,setting,value
Cc1sc2c(c1C)C(c1ccc(Cl)cc1)=N[C@@H](CC(=O)OC(C)(C)C)c1nnc(C)n1-2,Activity,[1],80.78%
same,Activity,[2],22.85%
same,Activity,[3],6.12%
same,Activity,[4],18.1%
same,IC50,[5],1300 nM
same,Activity,[6],46.96%
same,Activity,[7],64.98%
same,Activity,[8],19.09%
same,TGI,[9],52.82%
same,Activity,[10],11%
same,Activity,[11],0%
same,Activity,[12],3.38%
same,Activity,[13],0.03%
same,Activity,[14],4.03%
same,Activity,[15],0.06%
same,Activity,[16],0%
same,Activity,[17],7.22%
same,IC50,[18],2840 nM
same,Activity,[19],80.59%
same,Activity,[20],68.49%
same,Activity,[21],65.43%
same,Activity,[22],67.33%
same,Activity,[23],4.15%
same,Activity,[24],23.24%
same,Activity,[25],46.96%
same,Activity,[26],5.04%
same,Activity,[27],11.65%
same,Activity,[28],8.62%
same,Activity,[29],11.71%
same,Activity,[30],62.73%
same,ΔTm,[31],0 °C
same,ΔTm,[32],0 °C
same,Activity,[33],6.72%
same,IC50,[34],1730 nM
same,ΔTm,[35],0 °C
same,Activity,[36],4.68%
same,Activity,[37],40.75%
same,Activity,[38],0.03%
same,Activity,[39],6.52%
same,Activity,[40],40.75%
same,Activity,[41],11.65%
same,Activity,[42],88.78%
same,IC50,[43],16300 nM
